Activity calls are given as the source filed them.
Key:
[1] = HEK293T cytotoxicity, dose response, cytotoxicity control for miR-122 modulator project, cell-based, activator set, cherry-pick (AID 720690); assay type: functional;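 note: HEK293T human cells scored for general mammalian cytotoxicity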
[2] = molecular target: Endoplasmic reticulum aminopeptidase 1 (Homo sapiens, UniProt Q9NZ08); assay: ERAP1 aminopeptidase inhibitors, dose response, biochemical, cherry-pick, set 2, plate reader (AID 743314)
[3] = molecular target: Paired box protein Pax-8 (Homo sapiens, UniProt Q06710); assay: inhibitors of PAX8-driven TPO luciferase reporter, dose response, RMG-I cells, cherry-pick (AID 687027); assay type: functional, cell-based;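 note: luciferase reporter driven by Pax8 target thyroperoxidase promoter measured by SteadyGlo luminescence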
[4] = inhibitors of CMV-promoter luciferase reporter, dose response, counter-screen for Pax8 inhibitor project, cell-based, HEK293, luminescence, dry powder (AID 743020); assay type: functional
[5] = HEK293T cytotoxicity, dose response, cytotoxicity control for miR-122 modulator project, cell-based, inhibitor set, cherry-pick, set 2 (AID 720697); assay type: functional
[6] = A Cell-Based Confirmatory Screen for Compounds that Inhibit VEEV, TC-83 (3).; assay type: functional
[7] = molecular target: T1, Methionyl-tRNA synthetase, putative (Trypanosoma brucei brucei, UniProt Q38C91); assay type: functional, Trypanosoma brucei brucei strain 927/4 GUTat10.1
T1 sequence (Q38C91 whole entry): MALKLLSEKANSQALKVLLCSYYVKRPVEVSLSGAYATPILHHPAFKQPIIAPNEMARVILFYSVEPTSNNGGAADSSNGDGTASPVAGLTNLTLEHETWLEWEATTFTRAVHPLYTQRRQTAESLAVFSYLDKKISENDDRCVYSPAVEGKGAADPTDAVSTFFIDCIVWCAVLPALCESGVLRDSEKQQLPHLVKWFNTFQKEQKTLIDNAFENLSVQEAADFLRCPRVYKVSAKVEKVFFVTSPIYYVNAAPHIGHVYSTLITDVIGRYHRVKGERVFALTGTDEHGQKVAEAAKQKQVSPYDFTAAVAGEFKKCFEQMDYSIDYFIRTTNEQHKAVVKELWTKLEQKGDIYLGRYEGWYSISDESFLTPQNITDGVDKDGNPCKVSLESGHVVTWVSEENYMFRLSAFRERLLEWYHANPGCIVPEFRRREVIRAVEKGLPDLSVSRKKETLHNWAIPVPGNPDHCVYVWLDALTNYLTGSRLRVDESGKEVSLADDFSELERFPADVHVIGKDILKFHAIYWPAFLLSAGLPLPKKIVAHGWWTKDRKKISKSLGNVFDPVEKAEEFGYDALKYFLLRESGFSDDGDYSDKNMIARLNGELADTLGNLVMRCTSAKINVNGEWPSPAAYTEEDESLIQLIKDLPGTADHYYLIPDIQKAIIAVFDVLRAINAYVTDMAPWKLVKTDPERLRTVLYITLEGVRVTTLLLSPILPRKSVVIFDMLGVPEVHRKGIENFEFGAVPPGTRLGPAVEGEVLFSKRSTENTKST

[8] = molecular target: T1, Methionyl-tRNA synthetase, putative; assay type: functional, Trypanosoma brucei brucei strain 927/4 GUTat10.1; remark: listed apart in the source
[9] = ADAM10 inhibitors, peptide cleavage, dose response, biochemical, QFRET (AID 743254);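 note: ADAM10 enzyme with the DM2 quenched FRET peptide as substrate; EDANS fluorescence gain as the protease cuts the substrate; inhibitor potency against ADAM10 proteolytic activity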
[10] = cytotoxicity toward NIH3T3 fibroblasts, dose response, counter-screen, cell-based, ATP luminescence, mouse fibroblasts (AID 2010); assay type: functional;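 note: cells exposed to compound for about 90 hours before reading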
[11] = molecular target: Disintegrin and metalloproteinase domain-containing protein 17 (Homo sapiens, UniProt P78536); assay: ADAM17 protease inhibitors, dose response, counter-screen for ADAM10 exosite inhibitor project, biochemical, quenched FRET substrate (AID 743253)
[12] = Counterscreen for inhibitors of Trypanosoma brucei methionyl tRNA synthetase (MetRS): Luminescence-based cell-based high throughput dose response assay to identify compounds that are cytotoxic to Jurkat human T lymphocyte cells.; assay type: functional
[13] = inhibitors of intracellular T. cruzi replication, confirmation, NIH3T3 host cells, beta-gal luminescence (AID 2044); assay type: functional, cell-based;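 note: intracellular parasites grown in NIH/3T3 mouse fibroblasts as host cells; luminescent beta-galactosidase reporter signal from transgenic T. cruzi replicating inside host cells; inhibitors lower the luminescence signal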
[14] = human group III sPLA2 inhibitors, dose response, biochemical, QFRET, IC50 (AID 743457);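 note: green fluorescence rise as the enzyme cleaves BODIPY PC-A2 in liposomes; potency for inhibition of the enzyme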
[15] = molecular target: fMet-Leu-Phe receptor (Homo sapiens, UniProt P21462); assay: FPR ligands, dose response (AID 519); assay type: functional
[16] = HEK293T cell cytotoxicity, dose response, cytotoxicity control, luminescence plate reader, powder samples, set 4 (AID 651863); assay type: functional, cell-based; conditions: HEK293
[17] = HepG2 cell cytotoxicity, dose response, cytotoxicity control, CellTiter-Glo luminescence, cherry-pick, set 2 (AID 743395); assay type: functional
[18] = test system: BJ; assay: cytotoxicity toward Ras-transformed BJeLR fibroblasts, dose response, cell-based, alamar blue fluorescence, cherrypicked samples (AID 2631); assay type: functional; conditions: Homo sapiens;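 note: confirmatory dose-response assay in RAS-dependent BJ fibroblasts engineered with TERT, LT and ST, with cytotoxicity read by fluorescence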
[19] = HEK293 cell cytotoxicity, dose response, cytotoxicity control, cherry-picks, set 5 (AID 1053117); assay type: functional, cell-based
[20] = inhibitors of HIV Env-driven cell fusion, dose response, cherry-pick (AID 652057); assay type: functional, cell-based
[21] = off-target signal loss in HeLa-CEM21 co-culture – HeLa F-luc CTL cells, cherry-picked, counter-screen for HIV-1 Env fusion inhibitor project, dose response (AID 652040); assay type: functional, cell-based;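 note: potency for signal decrease marking cytotoxic or nonspecific inhibition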
[22] = CEM21 lymphoblast cell cytotoxicity, dose response, cytotoxicity control for viral fusion inhibitor project, CellTiter-Glo luminescence, cherry-picked (AID 652042); assay type: functional, cell-based;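 note: potency for signal decrease meaning cytotoxicity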
[23] = ZM109 Env clade C HIV-1 fusion inhibitors, dose response, HeLa effector, CEM target cells, luciferase, cherry-pick (AID 652058); assay type: functional, cell-based
[24] = inhibitors of clade B AD8 Env fusion, dose response, cell-based, cherry-pick (AID 652062); assay type: functional;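 note: luciferase signal from cell-cell fusion driven by HIV-1 clade B AD8 Env; potency is for inhibitors of fusion seen as a drop in luminescence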
[25] = AlphaScreen signal interference by compounds, dose response, artefact control for ARNT/TACC3 disruptor project, biochemical, dual-tagged ARNT, dry powder (AID 720564)
[26] = HeLa cell cytotoxicity, dose response, cytotoxicity control, CellTiter-Glo luminescence, dry powder, set 2 (AID 720593); assay type: functional, cell-based
[27] = molecular target: Large T antigen (Simian virus 40, UniProt P03070); assay type: functional, Betapolyomavirus macacae;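 note: Confirmatory-stage PubChem screen for compounds that inhibit SV40 T antigen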
[28] = C. albicans growth with fluconazole, confirmation, fluorescence, retest (AID 2467); assay type: functional, cell-based
[29] = NIH-3T3 fibroblast cytotoxicity, dose response, cytotoxicity control, cell-based, fluorescence, Alamar Blue, secondary assay (AID 2327); assay type: functional;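 note: NIH-3T3 mouse fibroblasts cultured with fluconazole at 8 µg/mL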
[30] = molecular target: T2, Caspase-6 (Homo sapiens, UniProt P55212); assay: human caspase-6 inhibitors, dose response, biochemical, VEID-R110 fluorescence, cherry-pick (AID 720632)
T2 sequence (P55212 whole entry): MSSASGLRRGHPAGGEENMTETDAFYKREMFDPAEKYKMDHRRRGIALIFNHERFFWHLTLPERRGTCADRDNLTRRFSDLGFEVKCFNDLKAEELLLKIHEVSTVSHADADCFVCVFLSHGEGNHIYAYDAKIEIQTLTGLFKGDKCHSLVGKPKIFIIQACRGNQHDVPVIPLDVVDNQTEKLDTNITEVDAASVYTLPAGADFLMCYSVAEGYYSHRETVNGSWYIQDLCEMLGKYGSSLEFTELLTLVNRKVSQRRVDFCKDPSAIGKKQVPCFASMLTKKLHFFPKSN

[31] = molecular target: Albumin (Bos taurus, UniProt P02769); assay: Counterscreen for inhibitors of T-cell receptor (TCR)-CD3 interaction: Fluorescence-based biochemical high throughput dose response assay to identify inhibitors of T-cell receptor (TCR)-CD3 interaction using a TAMRA-labeled BSA probe.; assay type: functional
[32] = molecular target: Fatty acid synthase (Homo sapiens, UniProt P49327); assay: FAS thioesterase domain inhibitors, SAR follow-up, biochemical, endpoint fluorescence intensity, powder samples (AID 652164); assay type: functional
[33] = Counterscreen for […] of the human trace amine associated receptor 1 (TAAR1): Fluorescence-based cell-based high throughput dose response assay to identify nonselective Ga16 agonists.; assay type: functional
[34] = molecular target: T3, Trace amine-associated receptor 1 (Homo sapiens, UniProt Q96RJ0); assay: Fluorescence-based cell-based high throughput dose response assay to identify antagonists of the human trace amine associated receptor 1 (TAAR1).; assay type: functional
T3 sequence (Q96RJ0 whole entry): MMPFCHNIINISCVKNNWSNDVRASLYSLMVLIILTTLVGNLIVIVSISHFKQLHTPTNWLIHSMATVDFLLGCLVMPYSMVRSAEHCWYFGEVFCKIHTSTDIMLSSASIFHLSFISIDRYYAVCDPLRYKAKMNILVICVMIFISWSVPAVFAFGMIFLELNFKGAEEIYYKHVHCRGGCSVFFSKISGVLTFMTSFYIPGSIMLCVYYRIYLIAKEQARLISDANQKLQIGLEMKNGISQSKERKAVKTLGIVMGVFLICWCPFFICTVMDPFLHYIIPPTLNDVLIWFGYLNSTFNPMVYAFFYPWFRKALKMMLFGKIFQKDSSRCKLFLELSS

[35] = Counterscreen for antagonists of the human trace amine associated receptor 1 (hTAAR1): Fluorescence-based cell-based high throughput dose response assay to identify nonselective Ga16 antagonists.; assay type: functional
[36] = molecular target: T3, Trace amine-associated receptor 1; assay: Counterscreen for antagonists of the human trace amine associated receptor 1 (hTAAR1): Fluorescence-based cell-based high throughput dose response assay to identify TAAR1 Agonists.; assay type: functional
[37] = cells
[38] = molecular target: Major prion protein (Homo sapiens, UniProt P04156); assay type: functional, cell-based

## CN[C@H]1C[C@H]2c3[nH]c4ccc(-c5ccc(OC)cc5)cc4c3CCN2C(=O)[C@H]1[C@H](C)O
[1]
  AC50: 15.8 µM (active)

## COC(=O)[C@H]1[C@H](CO)[C@H]2Cn3c(ccc(-c4ccncc4)c3=O)[C@H]2N1Cc1ccccc1F
[2]
  AC50: 10.2 µM (active)

## C[C@@H]1CCCCO[C@@H](CN(C)C(=O)Nc2ccc(F)cc2)[C@H](C)CN([C@@H](C)CO)C(=O)c2cc(NC(=O)Nc3ccc(C(F)(F)F)cc3)ccc2O1
[3]
  AC50: 4.11 µM (active)
[4]
  AC50: 67.7 µM (active)

## CCC(=O)NC[C@@H]1[C@@H](c2ccc(C3=CCCC3)cc2)[C@@H](CO)N1C(C)=O
[5]
  AC50: 9.42 µM (active)

## CC(C)N1CCN(Cc2nc3ccc([N+](=O)[O-])cc3c(=O)n2-c2ccccc2F)CC1
[6]
  IC50: 3.13 µM (active)

## COc1ccccc1NS(=O)(=O)c1cccc(NC(=O)Nc2cccc(Cl)c2)c1
[7]
  IC50: 12 µM (inactive)
[8]
  IC50: 15.7 µM (inactive)
[9]
  IC50: 12 µM (inactive)
[10]
  EC50: > 60 µM (not active)
[11]
  IC50: > 69.5 µM (inactive)
[12]
  IC50: 41.1 µM (inactive)
[13]
  EC50: 2.16 µM (active)

## CCCCN=C(S)NNC(=O)c1csc(C)c1C
[14]
  IC50: > 122 µM (inactive)

## CCC(Sc1nc2c(c(=O)[nH]1)CCC2)C(=O)Nc1cccc(OC)c1 (centres undefined)
[15]
  Ki: 35.5 µM (inactive)

## COC(=O)C(C(=O)OC)c1cc(NS(=O)(=O)c2c(C)cc(C)cc2C)c2ccccc2c1O
[16]
  AC50: 27 µM (active)

## COc1ccc(C(=O)c2cc([N+](=O)[O-])ccc2N2CCOCC2)cc1
[3]
  AC50: 3.21 µM (active)
[17]
  AbsAC35_uM: 60.09 µM
[18]
  EC50: < 0.104 µM (active)

## Cc1cccc(NC(=O)c2ccc(S(=O)(=O)N3CCCCC3)cc2)n1
[19]
  AC50: > 52 µM (inactive)

## C[C@H]1CNC(=O)c2c(C(=O)N3CCN(C(=O)OC(C)(C)C)CC3)ncn21
[20]
  AC50: 0.805 µM (active)
[21]
  AC50: 2.18 µM (active)
[22]
  AC50: 47.9 µM (active)
[23]
  AC50: 3.02 µM (active)
[24]
  AC50: 4.38 µM (active)

## O=C(Nc1nc(-c2ccncc2)cs1)c1cccc(S(=O)(=O)N2CCOCC2)c1
[25]
  AC50: 110 µM (active)
[26]
  AC50: > 52 µM (inactive)

## C/C(=N/NC(=O)c1cc(O)c(O)c(O)c1)c1ccc([N+](=O)[O-])cc1
[27]
  IC50: 8.68 µM (active)
[28]
  EC50: > 38 µM (not active)
[29]
  EC50: > 160 µM (inactive)
[30]
  AC50: 27.5 µM (active)
[31]
  IC50: > 94.1 µM (inactive)

## CC(=O)Nc1nc(-c2ccc(S(=O)(=O)N3CCSCC3)cc2)cs1
[32]
  IC50: > 80 µM (inactive)

## Cc1cc(/C=N\NC(=O)CC(=O)NC2CCCCC2)c(C)n1-c1ccc(Cl)c(Cl)c1
[33]
  EC50: > 29.9 µM (inactive)
[34]
  IC50: 0.915 µM (active)
[35]
  IC50: 15.3 µM (inactive)
[36]
  EC50: 7.54 µM (active)

## Cc1cc(NC(=O)CCC(=O)N(c2ccccc2)C(C(=O)NC2CCCC2)c2cccs2)no1 (centres undefined)
[37]
  IC50: > 138 µM (inactive)
[38]
  IC50: 16.2 µM (inactive)

— ChEMBL document CHEMBL1201862, “PubChem BioAssay data set” (2004)
